Reference: patent US20250101108A1, “METHODS TO ENHANCE THERAPEUTIC EFFICACY IN MELANOMA VIA MODULATION OF CELL SURFACE PD-L1/L2” (THE REGENTS OF THE UNIVERSITY OF CALIFORNIA, priority 2021, published 2025)
Like-named read-outs stand apart in the source and are kept apart here.

Legend:
ITCH = ITCH (Homo sapiens, UniProt Q96J02); conditions: cited from earlier work
UBCH7 and ITCH [1] = target: T1, UBCH7 and ITCH (Homo sapiens, UniProt Q96J02); test: UBCH7-ITCH interaction, anti-FLAG immunoprecipitation and WB in HEK293T cells; type: cell-based; set-up: expressed in transfected cells; host or cells: HEK293T; conditions: HA-UBCH7 and ITCH-FLAG, 100 μM for 24 or 36 hours
endogenous PD-L1 = test: Ubiquitination assay (anti-PD-L1 IP and WB detection of UB) in M238 R1 cells; type: cell-based, human; conditions: 0, 40, 80 μM for 6 days, then MG-132 20 μM 4 hours
Method: (§1) (6A) Structure and chemical name of AK087. (6B) M238R1 cells with ITCH-FLAG over-expression were treated with 0, 40, or 80 μM of AK087 for 6 days and then treated with MG-132 (20 μM) for 4 hours followed by anti-PD-L1 or anti-FLAG IP and Western blot (WB) detection of UB. (6C) 293T cells co-transfected with PD-L1-FLAG and ITCH-HA were treated with 0, 40, or 80 μM of AK087 for 6 days and then treated with MG-132 (20 μM) for 4 hours followed by anti-HA or anti-FLAG IP and WB detection of UB. (6D) M238R1 cell-surface levels of PD-L1 (left) and PD-L2 (right) as measured by cell-surface staining and FACS analysis after 0, 20, 40, 80 μM AK087 treatment for 6 days. Mean±SEMs (n=3). […]

ITCH-FLAG = target: T2, ITCH-FLAG (Homo sapiens, UniProt Q96J02); test: Ubiquitination assay (IP and WB detection of UB) in M238 R1 cells expressing ITCH-FLAG; type: cell-based; conditions: 0, 40, 80 μM for 6 days, then MG-132 20 μM 4 hours
T2 construct: expressed in transfected cells
Method: as §1

total PD-L1 = test: Western blots of total PD-L1 protein levels in cultured cell lines; type: cell-based, human; conditions: for total PD-L1 protein level: 20, 40, 80 μM for 6 days
Method: as §1
(§2) FIGS. 9A-9N show physical and functional interactions between ITCH and PD-L1/L2. (9A) Cell-surface levels of PD-L2 in M238R1 (left) and MDA-MB-231 (right) cells stably expressing control shRNA (shCtr) or ITCH-targeting shRNAs (shiICH-1, shiICH-2), as measured by cell-surface staining and FACS analysis (PD-L2 is not detectable in H358 cells). MFI, mean fluorescence intensity. […] (9B) Cell-surface levels of PD-L2 in M238 R1 cells stably expressing empty vector (Vec) or over-expression (OE) ITCH, as measured by cell-surface staining and FACS analysis. […] (9C) Cell-surface levels of PD-L1 in M238R1, H358, and MDA-MB-231 stably expressing control shRNA (shCtr) or ITCH-targeting shRNAs (shiICH-1, shiICH-2) and M238R1 stably expressing empty vector (Vec) or OE ITCH, as measured by immunofluorescence staining. […] (9D) PD-L1 internalization in M238 R1 cells stably expressing empty vector (Vec) or OE ITCH, as measured by FACS analysis. […]

[2] = system: YUMM1.7ER melanoma tumors; test: Subcutaneous syngeneic YUMM1.7ER tumors on trametinib, acquired MAPKi-resistance; type: in vivo
NILER1-4 = test: Response of NILER1-4 melanoma to immune checkpoint blockade; type: in vivo, murine; conditions: AK087 15 mg/kg/day subcutaneously with anti-PD-1, anti-CTLA-4, aLAG-3
Method: (§3) Data are derived from two murine models of melanoma, YUMM1.ER, Braf^V600MUT melanoma, and NILER1-4, […] melanoma. (15A) YUMM1.7ER. n=9-10 per group. Means±SEM. Anti-PD-1 200 μg/mouse, anti-CTLA-4 200 μg/mouse three times a week for the first two weeks, then change to twice/week treatment. AK087 10 mg/kg/day (Subcutaneously, daily) administration. *p<0.05, student's t test. (15B) NILER1-4. n=8-10 per group. Means±SEM. Anti-PD-1 200 μg/mouse, anti-CTLA-4 200 g/mouse, aLAG-3 200 μg/mouse three times a week for the first two weeks, then change to twice/week treatment. AK087 15 mg/kg/day (Subcutaneously, daily) administration. *p<0.05, student's t test.
as §3, with “melanoma. […]” for “melanoma. (15A) YUMM1.7ER. n=9-10 per group.”, “then changed” for “then change”, “test. […]” for “test. (15B) NILER1-4. n=8-10 per group.”, “200 μg/mouse,” for “200 g/mouse,”

YUMM1.7ER = test: Response of YUMM1.7ER melanoma to immune checkpoint blockade; type: in vivo, murine; conditions: AK087 10 mg/kg/day subcutaneously with anti-PD-1, anti-CTLA-4
Method: as §3
as §3, with “melanoma. […]” for “melanoma. (15A) YUMM1.7ER. n=9-10 per group.”, “then changed” for “then change”, “test. […]” for “test. (15B) NILER1-4. n=8-10 per group.”, “200 μg/mouse,” for “200 g/mouse,”

UBCH7 and ITCH [3] = target: T1, UBCH7 and ITCH; test: UBCH7-ITCH interaction, proximity ligation assay (PLA) in cancer cell lines; type: cell-based; conditions: M229R5, H358, M238R1 and M238, 100 μM for 2 days
Method: Right panel: M229R5, H358, M238R1 and M238 cells were treated with DMSO or AK087 (100 μM) for 2 days followed by proximity ligation assay (PLA) using anti-UBCH7 and anti-ITCH antibodies. Signal dots per cell was quantified by the Duolink ImageTool. For bar graph: n=2-3. Means±SEM. *p<0.05, **p<0.01, student's t test.
For bar graph: n=2-3. Means #SEM. *p<0.05, **p<0.01, student's t test.

[4] = system: tumor cell-surface PD-L1/L2; test: Cell-surface PD-L1 and PD-L2 detection by cell-surface staining and FACS analysis in cultured cell lines; type: cell-based, human
Method: as §1, §2

[5] = AK087 10 mg/kg/day for 17 days, co-treatment with trametinib
[6] = M238 R1 Vec or OE ITCH, 16 hours

ITCH, sequence (Q96J02 whole entry, species assumed): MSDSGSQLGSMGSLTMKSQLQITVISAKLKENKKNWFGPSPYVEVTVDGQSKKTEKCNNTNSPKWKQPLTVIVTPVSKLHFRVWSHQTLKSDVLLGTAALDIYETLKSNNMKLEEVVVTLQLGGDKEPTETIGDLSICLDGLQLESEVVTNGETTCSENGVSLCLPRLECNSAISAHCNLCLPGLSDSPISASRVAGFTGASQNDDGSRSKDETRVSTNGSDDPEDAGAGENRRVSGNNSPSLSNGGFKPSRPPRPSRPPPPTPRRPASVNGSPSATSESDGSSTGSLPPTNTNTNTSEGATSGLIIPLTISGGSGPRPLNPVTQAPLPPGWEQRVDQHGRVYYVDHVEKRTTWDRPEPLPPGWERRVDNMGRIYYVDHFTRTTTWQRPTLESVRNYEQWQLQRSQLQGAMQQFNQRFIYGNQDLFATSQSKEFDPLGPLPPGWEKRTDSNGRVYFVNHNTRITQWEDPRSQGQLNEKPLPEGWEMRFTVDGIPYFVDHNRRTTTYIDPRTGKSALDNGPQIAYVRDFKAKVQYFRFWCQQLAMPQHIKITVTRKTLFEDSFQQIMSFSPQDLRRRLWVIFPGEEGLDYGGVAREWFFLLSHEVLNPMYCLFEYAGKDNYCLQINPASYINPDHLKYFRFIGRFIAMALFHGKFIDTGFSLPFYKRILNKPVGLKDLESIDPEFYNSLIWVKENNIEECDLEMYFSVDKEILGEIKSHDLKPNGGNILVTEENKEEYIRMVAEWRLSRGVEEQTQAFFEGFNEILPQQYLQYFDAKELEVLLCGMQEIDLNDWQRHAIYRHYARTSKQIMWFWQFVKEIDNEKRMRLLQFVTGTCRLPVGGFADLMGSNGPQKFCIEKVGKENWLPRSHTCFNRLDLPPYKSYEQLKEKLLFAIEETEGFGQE
T1 sequence (Q96J02 whole entry): as the sequence (Q96J02 whole entry, species assumed) above
T1 sequence (P68036 whole entry partner): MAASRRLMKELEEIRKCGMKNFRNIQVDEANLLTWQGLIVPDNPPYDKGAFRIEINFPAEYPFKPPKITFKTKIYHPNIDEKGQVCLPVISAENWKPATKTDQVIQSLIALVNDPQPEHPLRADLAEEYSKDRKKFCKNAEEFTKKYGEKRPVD
T2 sequence (Q96J02 whole entry): as the sequence (Q96J02 whole entry, species assumed) above

Molecule: Cc1ccc(NS(=O)(=O)c2ccccc2)cc1C [RL 3, N-(3,4-dimethylphenyl)benzenesulfonamide]
- Activity (%) (ITCH; Screening concentration 10 uM): 140%

Molecule: Cc1ccc(S(=O)(=O)c2cc3ccc(C)n3cn2)cc1 [RL 4, 4-methylphenyl 7-methylpyrrolo[1,2-c]pyrimidin-3-yl sulfone]
- Activity (%) (ITCH; Screening concentration 10 uM): 145%

Molecule: Cc1[nH]nc2c1C(c1ccccc1OC(C)C)C(C#N)=C(N)O2 (stereo not shown) [RL 6, 6-amino-3-methyl-4-{2-[(1-methylethyl)oxy]phenyl}-2,4-dihydropyrano[2,3-c]pyrazole-5-carbonitrile]
- Activity (%) (ITCH; Screening concentration 10 uM): 194%

Molecule: Cc1ccc(N2C(=O)C(Cl)=C(N3CCCCC3)C2=O)cc1 [RL 2, 3-chloro-1-(4-methylphenyl)-4-piperidin-1-yl-1H-pyrrole-2,5-dione]
- Activity (%) (ITCH; Screening concentration 10 uM): 141%

Molecule: COc1cc2oc(=O)cc(C)c2c(OC)c1OC [RL 5, 5,6,7-trimethoxy-4-methyl-2H-chromen-2-one]
- interaction between UBCH7 and ITCH (UBCH7 and ITCH [1]): enhances the interaction
- poly-ubiquitination of endogenous PD-L1 (endogenous PD-L1): enhancing the poly-ubiquitination
- poly/auto-ubiquitination of ITCH-FLAG (ITCH-FLAG): dose-dependently enhanced
- total PD-L1 protein level (total PD-L1; H358): dose-dependently reduced
- total PD-L1 protein level (total PD-L1; M238 R1): dose-dependently reduced
- body weight loss / toxicities [2, 5]: no appreciable body weight loss or superficial evidence of toxicities
- complete responses [2, 5]: 5 of 9
- acquired MAPKi-resistance ([2]; AK087 10 mg/kg/day subcutaneously for 17 days, co-treatment with trametinib 0.45 mg/kg/d): suppressed acquired MAPKi-resistance
- response to immune checkpoint blockade (NILER1-4): improves responses
- response to immune checkpoint blockade (YUMM1.7ER): improves responses
- interaction between UBCH7 and ITCH (UBCH7 and ITCH [3]): enhances the interaction
- Activity (%) (ITCH; Screening concentration 10 uM): 140%
- enhancement of auto-ubiquitination of ITCH (ITCH; reconstituted recombinant proteins, small molecule screen (ref. 25)): 140%
- tumor cell-surface PD-L1 ([4]; H358, 0, 20, 40, 80 μM for 6 days): dose-dependently reduced
- tumor cell-surface PD-L1/L2 ([4]; M238 R1, 0, 20, 40, 80 μM for 6 days): dose-dependently reduced

Molecule: CHLORO- PHYLLIDE Cu COMPLEX Na SALT [RL 1]
- Activity (%) (ITCH; Screening concentration 20 uM): 147%

Molecule: CCN(CC)CCCC(C)Nc1ccnc2cc(Cl)ccc12 (stereo not shown) [chloroquine, reference compound]
- down-regulation of total PD-L1 levels elicited by ITCH over-expression (total PD-L1; [6]): rescued down-regulation
- down-regulation of cell-surface PD-L1 levels elicited by ITCH over-expression [4, 6]: rescued down-regulation
